Experimental data reported in PubChem BioAssay (NCI).
Several values for one entry are separate records, joined by “and”; a condition that tells them apart may be missing. Equal entries are not always repeated.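 Cultured in 96-well plates, cells were exposed to test compound for 48 hours across five concentrations. GI50 marks 50% less growth. TGI denotes the concentration required for complete inhibition of growth.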

Assays:
Experiment in all cases: NCI-60 cell line screen, 48 h
[1] = system: SF-268 CNS
[2] = system: K-562 leukemia
[3] = system: SF-295 CNS
[4] = system: RPMI-8226 leukemia
[5] = system: KM12 colon
[6] = system: NCI-H226 lung
[7] = system: MDA-MB-435
[8] = system: OVCAR-3 ovarian
[9] = system: OVCAR-8 ovarian
[10] = system: HL-60(TB) leukemia

Row | SMILES | GI50 [1] [µM] | TGI [1] [µM] | GI50 [2] [µM] | TGI [2] [µM] | GI50 [3] | TGI [3] [µM] | GI50 [4] | TGI [4] [µM] | GI50 [5] | TGI [5] [µM] | GI50 [6] | TGI [6] [µM] | GI50 [7] [µM] | TGI [7] [µM] | GI50 [8] | TGI [8] [µM] | GI50 [9] | TGI [9] [µM] | GI50 [10] | TGI [10] [µM]
1 | O=C1/C(=C/c2ccc(Cl)cc2)N=C(c2ccccc2)N1c1cc(C(F)(F)F)ccc1Cl | 28.8 | > 100 | 20.1 | 79.9 | 17.2 µM | 48.8 | 21.5 µM | 52.1 | 21.9 µM | 84 | 23.6 µM | > 100 | 22.7 | 71.4 | 17.4 µM | 69 | 28.6 µM | > 100 | 16.9 µM | 42.7
2 | COc1nc2c(c(=O)n1C)CN(c1ccccc1)C(=O)CN2C | 36.8 | > 100 | 59.7 | > 100 | 52.6 µM | > 100 | 72.6 µM | > 100 | 27.3 µM | > 100 | 83.8 µM | > 100 | > 100 | > 100 | 38.4 µM | > 100 | 74.5 µM | > 100 | 49.8 µM | > 100
3 | Oc1c(CN2CCCCC2)ccc2cccnc12 | 6.07 | > 100 | 3.63 | > 100 | 2.69 µM | 15.4 | 3.71 µM | 31 | 3.91 µM | 19.6 | 2.41 µM | 16 | 4.65 | 21.4 | 2.41 µM | 8.22 | 3.18 µM | 22.8 | 3.34 µM | 12.8
4 | C[C@]1(c2nc3c(C(N)=O)cccc3[nH]2)CCCN1 | > 100 | > 100 | > 100 | > 100 | 56.1 µM and > 58.3 µM | > 100 | > 100 µM and 61.6 µM | > 100 | 61.9 µM and > 86.2 µM | > 100 | 50.6 µM and > 74.5 µM | > 100 | > 100 | > 100 | 53.6 µM and > 100 µM | > 100 | 69.5 µM and 99.8 µM | > 100 | 66.1 µM and > 100 µM | > 100
5 | Cn1cc(-c2ncnc3ccc(-c4cnc(Cl)c(NS(C)(=O)=O)c4)cc23)c2ccccc21 | 1.09 | > 100 | 2.7 | > 100 | 0.298 µM | 3.82 | 0.419 µM | 4.17 | 1.46 µM | 19.2 | 1.25 µM | 74.7 | 0.514 | 10.8 | 0.617 µM | 13.8 | 1.72 µM | > 100 | 0.538 µM | > 27.8
6 | [Mn+3].[O-][Cl+3]([O-])([O-])O.[O-]c1ccccc1C=NCCN1CC1.[O-]c1ccccc1C=NCCN1CC1 | 15.9 | > 100 | 20.5 | 42.4 | 18.6 µM | 58 | 1.36 µM | 9.91 | 17 µM | 39 | 12.3 µM | 35.8 | 37 | > 100 | 19.6 µM | 40.1 | 17.8 µM | > 100 | 14.7 µM | 37
7 | CC1(C)CC[C@]2(C(=O)NCCNCCN)CC[C@]3(C)C(=CC[C@@H]4[C@@]5(C)CCC(=O)C(C)(C)[C@@H]5CC[C@]43C)[C@@H]2C1 | 1.89 | 4.06 | 2.74 | > 100 | 1.83 µM | 3.39 | 2.44 µM | 6.26 | 1.85 µM | 3.4 | 11 µM | 36.1 | 1.75 | 3.19 | 1.85 µM | 3.29 | 2.15 µM | 4.9 | 2.07 µM | 4.71
